Test results from PubChem BioAssay (NCI).
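In this assay, cells in 96-well plates receive the compound at five concentrations for 48 hours. Endpoints are linearly interpolated between the surrounding concentrations. The concentration for 50% growth inhibition is given as GI50. TGI is the concentration that stops growth completely.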

How the values were obtained:
Assay in all cases: inhibition of tumour cell growth, NCI panel, 48 h
[1] = tested on: OVCAR-4 ovarian
[2] = tested on: EKVX NSCLC
[3] = tested on: HS 578T breast
[4] = tested on: CCRF-CEM leukemia
[5] = tested on: PC-3 prostate
[6] = tested on: LOX IMVI melanoma
[7] = tested on: MALME-3M melanoma
[8] = tested on: NCI-H460 lung
[9] = tested on: BT-549 breast
[10] = tested on: COLO 205 colon
[11] = tested on: SK-OV-3 ovarian
[12] = tested on: MDA-MB-231 breast
[13] = tested on: KM12 colon
[14] = tested on: SF-295 CNS
[15] = tested on: T-47D breast
[16] = tested on: RXF 393 renal
[17] = tested on: UACC-257 melanoma
[18] = tested on: IGROV1 ovarian
[19] = tested on: RPMI-8226 leukemia
[20] = tested on: UACC-62 melanoma
[21] = tested on: MOLT-4 leukemia
[22] = tested on: CAKI-1 renal
[23] = tested on: SF-268 CNS
[24] = tested on: NCI-H23 lung
[25] = tested on: SNB-75 CNS
[26] = tested on: SK-MEL-5 melanoma
[27] = tested on: HOP-62 NSCLC
[28] = tested on: SR leukemia
[29] = tested on: HCT-116 colon

## CCn1cc(C2NC(=O)c3cc(F)ccc3N2)c2cccc(Cl)c21 (configuration not stated)
[1]
  GI50: 2530 nM
  TGI: > 100000 nM
[2]
  GI50: 461 nM
  TGI: > 100000 nM
[3]
  GI50: 197 nM
  TGI: > 23100 nM
[4]
  GI50: 172 nM
  TGI: > 50300 nM
[5]
  GI50: 296 nM
  TGI: > 100000 nM
[6]
  GI50: 374 nM
  TGI: > 100000 nM
[7]
  GI50: 2550 nM
  TGI: > 100000 nM
[8]
  GI50: 320 nM
  TGI: > 100000 nM
[9]
  GI50: 327 nM
  TGI: > 100000 nM
[10]
  GI50: 349 nM
[11]
  GI50: 706 nM
  TGI: > 100000 nM
[12]
  GI50: 503 nM
  TGI: > 100000 nM
[13]
  GI50: 277 nM
  TGI: > 100000 nM
[14]
  GI50: 100 nM
  TGI: > 58300 nM
[15]
  GI50: 635 nM
  TGI: > 100000 nM
[16]
  GI50: 149 nM
  TGI: 674 nM
[17]
  GI50: > 100000 nM
  TGI: > 100000 nM
[18]
  GI50: 388 nM
  TGI: > 100000 nM
[19]
  GI50: 359 nM
  TGI: > 100000 nM
[20]
  GI50: 84.3 nM
  TGI: > 61900 nM
[21]
  GI50: 293 nM
  TGI: > 47800 nM
[22]
  GI50: 196 nM
  TGI: > 100000 nM
[23]
  GI50: 1920 nM
  TGI: > 100000 nM
[24]
  GI50: 508 nM
  TGI: > 100000 nM
[25]
  GI50: 123 nM
  TGI: 11900 nM
[26]
  GI50: 446 nM
  TGI: > 100000 nM
[27]
  GI50: 485 nM
  TGI: > 100000 nM
[28]
  GI50: 39 nM
  TGI: > 100000 nM
[29]
  GI50: 177 nM
  TGI: > 100000 nM
